Source: patent publication US6239284A, “Aromatic tetracyclic compounds of the retinoid type method for preparing and use” (priority 1997, dated 2001)
“Also recorded” adds a separate entry of the source. Like-named read-outs stand apart in the source and are kept apart here.

Legend:
T-47D cells = test: Anti-proliferation effect, estrogen-induced growth of T-47D cells; type: cell-based, human; conditions: for Effect on growth of T-47D cells in words: estrogenic conditions
Experimental: (§1) So as to test the anti-proliferation effect of the retinoids, growth experiments under oestrogenic conditions were carried out on cells MCF-7 and T-47D. These are the human estrogen-dependent mammary cancer cells which express the receptor to RE estrogens. The effect of the molecules is evaluated after 7 days of culture in oestrogenic conditions (estradiol 10^-9 M) by dosing the cellular DNA. The cells are distributed in 24 well plates at a density of 2×10^4 cells per well. The tests with the different retinoids are carried out in triplicate and the culture medium is changed after 4 days of growth.
(§2) The effect of the retinoids on the growth of MCF-7 and T-47D cells is evaluated after 7 days of culture in the presence of 10^-9 M estradiol by dosing the cellular DNA.

ERE = test: Anti-estrogenic effect, MELN cellular lineage (MCF-7 with ERE-βGlob-Luc) activated by estradiol; type: cell-based, human
Experimental: MCF-7 cells express RARα,γ and RXRα. The transfection of MCF-7 cells by an estrogen-dependent gene (ERE-βGlob-Luc) has permitted the establishment of the MELN cellular lineage, used to determine the anti-oestrogenic activity of the retinoids. These cells contain the gene of the luciferase under the transcriptional control of the promoter of the βGlobine and of the response element ERE isolated from the gene of chicken vitelogenine A2. The experiments are carried out with MELN cells activated by 10^-9 M estradiol. The level of base activity of the MELN cells is obtained with the anti-estrogen 1 μM 4-OH-tamoxifen (hydroxytamoxifen).
The effect of the products tested on the cells activated by 10^-9 M estradiol is expressed as a percentage, the level of base activity being deducted.

AP-1 = test: Anti-AP-1 effect, MTLN cellular lineage (MCF-7 with (TRE)3-tk-Luc) activated by TPA; type: cell-based, human; conditions: for Anti-AP-1 effect, Inhibition (%): 10^-7 M TPA, range of several experiments; for inhibition at 1 µM: Homo sapiens, AP1, read-out: Inhibition of AP-1 route (MTLN)
Experimental: The anti-factor AP-1 transrepressor effect of retinoids is determined using the MTLN lineage, coming from MCF-7 cells transfected in a stable fashion by a vector p(TRE)3 -tk-Luc which places the expression of the gene of luciferase under the control of […]. TPA activates the AP-1 complex formed from proteins of the family of nuclear proto-oncogenes (c-Jun and c-Fos). […] The experiments ware made with the MTLN cells activated by 10^-7 M TPA.
The effect of the compounds on the MTLN cells activated by 10^-7 M TPA is expressed as a percentage. […] The inhibitive properties of the products are calculated after deduction of the base activity of the cells. The percentages reported correspond to a range of inhibitions determined from several experiments.

MCF-7 cells = test: Anti-proliferation effect, estrogen-induced growth of MCF-7 cells; type: cell-based, human; conditions: for Effect on growth of MCF-7 cells in words: estrogenic conditions
Experimental: as §1, §2

RARE [1] = test: HRL+N transactivation (stably transfected HeLa, RARE reporter, endogenic receptors); type: cell-based; conditions: for activation at 1 µM: Table 12
Description: (§3) The cellular lineages HRLN and HRL+N allow one to study the activation of an RARE by endogenic receptors using ligands at physiological concentrations. These lineages derive from HeLa cells transfected in a stable fashion by a reporter gene which places the expression of the gene of the luciferase under the control of a nuclear response element RARE (RARE3 -tk-Luc). The HeLa cells express all the known receptors of the retinoic acid (RARα,β,γ and RXRα,β,γ) with a predominance of RARα and RXRα. The response element RARE used for the HRLN cells corresponds to the sequence of the natural gene of the RARβ receptor (GGTTCAnnnnnAGTTCA). The HRL+N cells comprise the sequence GAGTGAnnnnnCGGTGA.
The HRL+N lineage allows one to visualize a co-activation of the RAR and RXR receptors at the level of the RAR-RXR hetero-dimer.

RARE [2] = test: HRLN transactivation (stably transfected HeLa, RARE3-tk-Luc, endogenic receptors); type: cell-based
Description: as §3

RARα [3] = test: Transactivation of chimerical receptor RARα-ERcassette, transient transfection of HeLa cells; type: cell-based; conditions: for RAR-ERcassette RARα transactivation (%): 100% = TTNPB 10^-8 M
Description: (§4) The HeLa cells are co-transfected by a plasmid which codes for a retinoic receptor in which the C domain of bonding to the DNA is substituted by that of the receptor to RE estrogens, and a plasmid which places the expression of the luciferase under the control of an ERE (Element of Response to Estrogens). The expressed chimerical receptors are designated as RARα-ERcassette, RARβ-ERcassette, RARγ-ERcassette and RXRα-ERcassette. The A, B, D, E and F regions of the natural receptor are preserved as well as the transcriptional co-operation between the activation domains AF-1 and AF-2. These transitory transfection experiments follow the method of co-precipitation to calcium phosphate. The HeLa cells are co-transfected by […] of plasmid coding for the chimerical receptor, […] of reporter plasmid and […] of expression vector CMV-β-galactosidase used as an internal control of transfection. 24 hours after the transfection, the cells are incubated for 16 hours with the different effectors.
(§5) In this type of chimerical receptor, the C domain of bonding to the DNA of RAR is substituted by that of the receptor to the RE estrogens. The protein obtained is close to the natural RAR receptor and preserves the transcriptional properties of the AF-1 and AF-2 domains. It modulates the transcription by means of an ERE. This RAR-ERcassette model allows one to observe a transcriptional response to a more physiological ligand.
(§6) The study of the selectivity of the compounds was carried out with the RAR-ERcassette chimerical receptors model.
(§7) On one and the same line in the Table, the cis (Z) compound represents the isomeric structure of the trans (E) compound.

RARγ [4] = test: Transactivation of chimerical receptor RARγ-ERcassette, transient transfection of HeLa cells; type: cell-based; conditions: 100% = TTNPB 10^-8 M
Description: as §4, §5, §6, §7

RAR [5] = test: RAR-ERcassette model, specificity profile (transient transfection of HeLa cells); type: cell-based
Description: as §4, §5, §6

RARβ [6] = test: Transactivation of chimerical receptor RARβ-ERcassette, transient transfection of HeLa cells; type: cell-based; conditions: for RAR-ERcassette RARβ transactivation (%): 100% = TTNPB 10^-8 M
Description: as §4, §5, §6, §7

RAR [7] = test: GAL-RAR model, specificity profile (transient transfection of HeLa cells)
Description: (§8) Studies of the transactivational specificity of the retinoids have been carried out by transitory transfection of HeLa cells. Two types of chimerical receptors can then be expressed by the cells. […] The C region (domain of bonding to the DNA) and the A and B regions (AF-1 activation domain) are suppressed.
(§9) These chimerical receptors activated by an agonist specifically stimulate the transcription of the gene of the luciferase present in a co-transfected plasmid ((17M)5-βG-Luc) where 17M is the response element of Gal4.

RARγ [8] = test: Transactivation of chimerical receptor GAL4-RARγ, transient transfection of HeLa cells (luciferase)
Description: as §8, §9

RARβ [9] = test: Transactivation of chimerical receptor GAL4-RARβ, transient transfection of HeLa cells (luciferase)
Description: as §8, §9

RARα [10] = test: Transactivation of chimerical receptor GAL4-RARα, transient transfection of HeLa cells (luciferase)
Description: as §8, §9

[11] = Homo sapiens, -6 log M (10^-6 M), 10^-9 M estradiol, read-out: Anti-oestrogenic effect, Inhibition (%)
[12] = Homo sapiens, read-out: Anti-oestrogenic effect, Inhibition (%)

Row | Compound | Anti-AP-1 effect, Inhibition (%) (AP-1; -7 log M) | Anti-AP-1 effect, Inhibition (%) (AP-1; -8 log M) | HRL+N transactivation in words (RARE [1]) | activation at 1 µM (RARE [1]; Homo sapiens, HeLa) | RAR-ERcassette RARα transactivation (%) (RARα [3]; -6 log M (1 μM)) | RAR-ERcassette RARγ transactivation (%) (RARγ [4]; -6 log M (1 μM)) | Effect on growth of T-47D cells in words (T-47D cells) | inhibition at 1 µM (ERE; [11]) | RAR-ERcassette profile in words (RAR [5]) | Anti-AP-1 effect (MTLN) in words (AP-1) | inhibition at 1 µM (AP-1) | Effect on growth of MCF-7 cells in words (MCF-7 cells) | RAR-ERcassette RARβ transactivation (%) (RARβ [6]; -6 log M (1 μM)) | RARβ transactivation (RAR-ERcassette) in words (RARβ [6]) | GAL-RAR agonist profile in words (RAR [7]) | GAL4-RARγ activity, % of activity measured for 10^-8 M TTNPB (RARγ [8]; Concentration -6 (log M)) | GAL4-RARγ activity, % of activity measured for 10^-8 M TTNPB (RARγ [8]; Concentration -7 (log M)) | GAL4-RARγ activity, % of activity measured for 10^-8 M TTNPB (RARγ [8]; Concentration -8 (log M)) | GAL4-RARβ activity, % of activity measured for 10^-8 M TTNPB (RARβ [9]; Concentration -7 (log M)) | GAL4-RARβ activity, % of activity measured for 10^-8 M TTNPB (RARβ [9]; Concentration -8 (log M)) | also measured
1 | CC1(C)CCC(C)(C)c2cc(C(=O)Nc3ccc(C(=O)O)cc3)ccc21 [Am580, 4-[(5,6,7,8-tetrahydro-5,5,8,8-tetramethyl-2-naphthalenyl)carboxamido]benzoic acid] | 41-48% | 40-46% |  |  |  |  |  |  |  |  |  |  |  |  |  |  |  |  |  |  | inhibition at 1 µM (T-47D cells; Homo sapiens, T47D, 168 h, at 1 μM, 7 days, estradiol 10^-9 M, read-out: T-47D percentage inhibition of growth): 74%; inhibition at 0.01 µM (ERE; Homo sapiens, -8 log M, 10^-9 M estradiol, read-out: Anti-oestrogenic effect, Inhibition (%)): 36 to 51%; inhibition at 1 µM (MCF-7 cells; Homo sapiens, MCF7, 168 h, at 1 μM, 7 days, estradiol 10^-9 M, read-out: MCF-7 percentage inhibition of growth): 67%
2 | Cc1cc2c(cc1/C=C1/CCc3cc(-c4nnn[nH]4)ccc31)C(C)(C)CCC2(C)C [CB02981, (Z) 5-[1-[2-(5,6,7,8-tetrahydro-3,5,5,8,8-pentamethyl)naphthalenylmethylene]-2,3-dihydro-1H-indenyl]-1H-tetrazole] |  |  | does not cause transactivation mediated by RAR and RXR | 0% | 4% | 0% | no effect whatsoever | 0% | inactive | in association with a RXR agonist, an additive effect of the inhibiting effects of the two molecules is observed; also recorded: dissociating compound and causes inhibition of the AP-1 ring | ~20% | no effect whatsoever | 7% |  |  |  |  |  |  |  | HRLN transactivation in words (RARE [2]): inactive; activation at 1 µM (RARE [2]; Homo sapiens, HeLa): 0%
3 | Cc1cc2c(cc1/C=C1/CCc3cc(C(=O)O)ccc31)C(C)(C)CCC2(C)C [CB75403, (Z) 1-[2-(5,6,7,8-tetrahydro-3,5,5,8,8-pentamethyl)naphthalenylmethylene]-2,3-dihydro-1H-indene-5-carboxylic acid] |  |  |  | 18% | 12% | 68% |  | 0% | RARβ,γ specificity; also recorded: RARβ,γ selectivity |  | ~30% |  | 65% | same level of transactivation through the intermediary of RARβ at 0.1 μM and at 1 μM and also at 3 μM |  |  |  |  |  |  | RARα transactivation (RAR-ERcassette) in words (RARα [3]): inactive on RARα; RAR-ERcassette RARα transactivation (%) (RARα [3]; -7 log M): 3%; RAR-ERcassette RARγ transactivation (%) (RARγ [4]; -7 log M): 40%; RAR-ERcassette RARβ transactivation (%) (RARβ [6]; -7 log M): 68%
4 | C=C(c1ccc(C(=O)O)cc1)c1cc2c(cc1C)C(C)(C)CCC2(C)C [LGD1069] |  |  | more effective than the RAR specific molecules |  |  |  | no effect whatsoever on the growth |  |  | most effective compound tested in this model |  | no effect whatsoever on the growth |  | transcriptional power appears higher notably through the RARβ-ERcassette | do not allow one to observe a good transactivation mediated by RAR | 29% | 8% | 1% | 5% | 1% | 
5 | Cc1cc2c(cc1C(=O)c1ccc(C(=O)O)cc1)C(C)(C)CCC2(C)C [LGD-CB14499] | 17-30% |  |  |  |  |  |  |  |  | causes an inhibition of the AP-1 route |  |  |  | transcriptional power appears higher notably through the RARβ-ERcassette | do not allow one to observe a good transactivation mediated by RAR | 13% | 0% | 0% | 1% | 0% | Emax at 1 µM (RARE [1]; Homo sapiens, HeLa): 94%; Emax (RARE [2]; Homo sapiens, HeLa, read-out: HRLN transactivation E max %): 30%; GAL4-RARα activity, % of activity measured for 10^-8 M TTNPB (RARα [10]; Concentration -6 (log M)): 17%; GAL4-RARα activity, % of activity measured for 10^-8 M TTNPB (RARα [10]; Concentration -7 (log M)): 4%; GAL4-RARα activity, % of activity measured for 10^-8 M TTNPB (RARα [10]; Concentration -8 (log M)): 1%; Anti-estrogenic effect (MELN) in words (ERE): inactive; inhibition at 0.1 µM (ERE; [12]): 0%; inhibition at 1 µM (ERE; [12]): 0%; GAL4-RARβ activity, % of activity measured for 10^-8 M TTNPB (RARβ [9]; Concentration -6 (log M)): 9%
6 | C/C(=C\c1ccc(C(=O)O)cc1)c1ccc2c(c1)C(C)(C)CCC2(C)C [TTNPB] | 29-54% | 26-53% |  |  |  |  |  |  |  |  |  |  |  |  |  |  |  |  |  |  | EC50 (RARE [2]; Homo sapiens, HeLa, read-out: HRLN transactivation EC50): 550 ± 720 pM; IC50 (T-47D cells; Homo sapiens, T47D, 168 h, read-out: T-47D IC50 (growth inhibition by 50%)): 3300 ± 1100 pM; inhibition at 0.01 µM (ERE; [12]): 30 to 41%; Inhibition in MELN (ERE; RAR selective molecules, 10^-9 M estradiol): ~40%; IC50 (MCF-7 cells; Homo sapiens, MCF7, 168 h, read-out: MCF-7 IC50 (growth inhibition by 50%)): 350 ± 70 pM
